US11401303B2, “Synthetic peptide BRAP and application in preparation of anti-inflammatory drug for COVID-19 thereof” (TAIAN CITY QIHANG BIOTECHNOLOGY CO., priority 2020, dated 2022)
Ends that are not written are not given here.

How the values were obtained:
[1] = system: ROS; test: ROS fluorescence intensity in lung tissue of LPS-induced mice by flow cytometry; format: in vivo, Balb/C mice
Method: 1. About 100 mg fresh left lung tissue from each group of mice constructed in example 9 was taken and washed for three times with PBS to remove blood;
2. the tissue was put in a nylon net, ground by a grinding rod, and washed by PBS;
3. a cell suspension was collected, and filtered by a 200-mesh sieve to remove tissue blocks;
4. the cell suspension was collected and centrifuged for 5 min at 1000 rpm/min;
5. cellular supernatant was removed and PBS was added for resuspending;
6. 10 μmol/L DCFH-DA was prepared with a serum-free culture solution;
7. cells were centrifuged to remove PBS, and the above probe diluent was added to make the cell concentration being 10^6/ml;
8. the cells were incubated for 30 min at 37° C., and shaken off for once every 3 min;
9. the cells were centrifuged for 5 min at 1000 rpm/min, and cell precipitates were resuspended on a serum-free culture medium;
10. step 9 was repeated for twice;
11. 500 μL PBS was added to resuspend cells, and flow cytometry was used to detect mean fluorescence intensity.

[2] = system: IL-6; test: IL-6 content in blood serum of LPS-induced mice (ELISA); format: in vivo, Balb/C mice
Method: (§1) 1. A reagent was taken out of a kit and balanced for 30 min at room temperature;
(§2) 2. standard wells and sample wells were set, and 50 ul standards at different concentrations were respectively added to each standard well.
(§3) 3. 50 ul sample to be tested (blood sample from each group of mice model constructed in example 9) was first added to the wells of the sample to be tested;
(§4) 4. 100 ul HRP-labeled detection antibody was respectively added to each standard well and well to be tested;
(§5) 5. reaction wells were sealed by a microplate membrane for incubation for 60 min at 37° C.;
(§6) 6. liquid was discarded, water was dried by an absorbent paper, each well was filled with scrubbing solution, standing for 1 min;
(§7) 7. a culture solution was discarded, water was dried by an absorbent paper, and steps 2-6 were operated repeatedly for 5 times;
(§8) 8. 50 ul substrate A/B was respectively added to each well for incubation for 15 min at 37° C.;
(§9) 9. 50 ul stop buffer was added to each well to detect an OD value at 450 nm by an microplate reader within 15 min.

[3] = system: TNF-a; test: TNF-a content in blood serum of LPS-induced mice (ELISA); format: in vivo, Balb/C mice
Method: as §1, §2, §3, §4, §5, §6, §7, §8, §9

[4] = system: endotoxin; test: Endotoxin content in blood of LPS-induced mice (LAL kit); format: in vivo, Balb/C mice; conditions: low, medium and high dose (4, 8, 16 mg/kgBW i.v.); 6 h after LPS 5 mg/kg BW i.p.; dose-response relationship
Method: The detection was performed according to the specification of the endotoxin test LAL (Limulus Amebocyte Lysate) kit:
(1) anticoagulant venous blood of each group of mice constructed in example 9 was taken and centrifuged for 2 min at 3000 rpm/min; 100 ul supernate was taken and added to a 0.9 ml sample treating fluid;
(2) the above sample was put in a 70° C. dry-heat sterilization box for 10 min, then cooled by running water;
(3) concentration gradient of an endotoxin standard was 1.0, 0.5, 0.25 and 0.1 EU/ml;
(4) several endotoxin-free test tubes were taken, and 100 ul water for detecting bacterial endotoxin, an endotoxin standard and a test product were added respectively;
(6) 100 ul TAL solution was added, mixed evenly, and covered by a silver paper, and incubated for 10 min at 37° C.;
(7) 100 ul developing-matrix solution was added, mixed evenly, and incubated for 6 min at 37° C.;
(8) 500 ul azo reagent 1 was added and mixed evenly;
(9) 500 ul azo reagent 2 was added and mixed evenly;
(10) 500 ul azo reagent 3 was added, mixed evenly, standing for 5 min;
(11) OD value was measured at 545 nm.

[5] = system: BK-induced pulmonary microvascular leakage; test: BK-induced pulmonary microvascular leakage in guinea pigs (Evans blue in lung tissue); format: in vivo, guinea pig; conditions: intranasal 50 μL/side/day for 3 days
Method: Male guinea pigs weighing 400 g±5% were randomly divided into 6 groups, 6 per group.
1. normal control group: an equal volume of normal saline was injected intravenously on the lateral foot vein, for 3 days;
2. model group: an equal volume of normal saline was injected intravenously on the lateral foot vein, for 3 days;
3. positive control group: 1.25 mg/3 ml/kg BW dexamethasone was injected intravenously on the lateral foot vein, for 3 days;
4. high-dose synthetic peptide brap group: bilateral nasal cavities of the guinea pig were injected the synthetic peptide brap having a concentration of 3.0 mM/L by a micro-sampling gun with 50 μL/side/day for 3 days; […]
2. […] The solution was centrifuged for 5 min at 1500 rpm/min; supernatant was taken to measure the absorbance with a wavelength of 620 nm.
3. Preparation of an EB standard curve: 0.1 mL 0.1% EB solution was taken accurately and added 0.9 mL normal saline to be prepared into 1 mL 0.01% EB standard solution; 0.1 mL EB standard solution was taken and added formamide to 2 mL with a final concentration of 5 mg/L; then the solution was diluted by formamide to 4, 2, 1, and 0.5 mg/L. An absorbancy OD value was measured at a wavelength of 620 nm; OD value was denoted y-coordinate; EB concentration was denoted by x-coordinate; then a standard curve of OD value-EB concentration was drawn, as shown in FIG. 7A.

[6] = low, medium and high-dose intravenous injection groups, p<0.01
[7] = nasal dripping group, at 12 h, P<0.05

Sequence: RVLNGPEAPA [brap]
- ROS content in lung tissues ([1]; induced by LPS for 6 h): obviously reducing the increase in ROS content
- ROS content in lung tissue ([1]; induced by LPS for 12 h): obviously reducing the increase in ROS content
- ROS content in lung tissues ([1]; intranasal administration, LPS-induced mice): reducing the overly increased ROS content
- ROS content in lung tissues ([1]; intravenous injection, LPS-induced mice): obviously decreases the overly increased ROS content
- IL-6 level in serum compared with the model group [2, 6]: dose-response relationship
- IL-6 level in LPS-induced blood [2, 7]: can decrease
- TNF-a level in serum compared with the model group [3, 6]: dose-response relationship
- TNF-a level in LPS-induced blood [3, 7]: can decrease
- Blood endotoxin level compared with the model group [4]: obviously below that in the model group
- Content of EB in lung tissues compared with the positive control group (dexamethasone) ([5]; P>0.05, except for the low-dose group): no significant difference
- Content of EB in lung tissues compared with the model group ([5]; low, medium, high dose (0.33, 1.0, 3.0 mM/L), P<0.01, dose-response relationship): obviously lower than that in the model group
